Data from ChEMBL document CHEMBL2169811, “Oncoepigenomics: making histone lysine methylation count” (Eur J Med Chem, 2012).

Key:
[1] = target: T1, Histone-lysine N-methyltransferase EHMT2 (Homo sapiens, UniProt Q96KQ7); test: Inhibition of G9a
T1 sequence (Q96KQ7 whole entry): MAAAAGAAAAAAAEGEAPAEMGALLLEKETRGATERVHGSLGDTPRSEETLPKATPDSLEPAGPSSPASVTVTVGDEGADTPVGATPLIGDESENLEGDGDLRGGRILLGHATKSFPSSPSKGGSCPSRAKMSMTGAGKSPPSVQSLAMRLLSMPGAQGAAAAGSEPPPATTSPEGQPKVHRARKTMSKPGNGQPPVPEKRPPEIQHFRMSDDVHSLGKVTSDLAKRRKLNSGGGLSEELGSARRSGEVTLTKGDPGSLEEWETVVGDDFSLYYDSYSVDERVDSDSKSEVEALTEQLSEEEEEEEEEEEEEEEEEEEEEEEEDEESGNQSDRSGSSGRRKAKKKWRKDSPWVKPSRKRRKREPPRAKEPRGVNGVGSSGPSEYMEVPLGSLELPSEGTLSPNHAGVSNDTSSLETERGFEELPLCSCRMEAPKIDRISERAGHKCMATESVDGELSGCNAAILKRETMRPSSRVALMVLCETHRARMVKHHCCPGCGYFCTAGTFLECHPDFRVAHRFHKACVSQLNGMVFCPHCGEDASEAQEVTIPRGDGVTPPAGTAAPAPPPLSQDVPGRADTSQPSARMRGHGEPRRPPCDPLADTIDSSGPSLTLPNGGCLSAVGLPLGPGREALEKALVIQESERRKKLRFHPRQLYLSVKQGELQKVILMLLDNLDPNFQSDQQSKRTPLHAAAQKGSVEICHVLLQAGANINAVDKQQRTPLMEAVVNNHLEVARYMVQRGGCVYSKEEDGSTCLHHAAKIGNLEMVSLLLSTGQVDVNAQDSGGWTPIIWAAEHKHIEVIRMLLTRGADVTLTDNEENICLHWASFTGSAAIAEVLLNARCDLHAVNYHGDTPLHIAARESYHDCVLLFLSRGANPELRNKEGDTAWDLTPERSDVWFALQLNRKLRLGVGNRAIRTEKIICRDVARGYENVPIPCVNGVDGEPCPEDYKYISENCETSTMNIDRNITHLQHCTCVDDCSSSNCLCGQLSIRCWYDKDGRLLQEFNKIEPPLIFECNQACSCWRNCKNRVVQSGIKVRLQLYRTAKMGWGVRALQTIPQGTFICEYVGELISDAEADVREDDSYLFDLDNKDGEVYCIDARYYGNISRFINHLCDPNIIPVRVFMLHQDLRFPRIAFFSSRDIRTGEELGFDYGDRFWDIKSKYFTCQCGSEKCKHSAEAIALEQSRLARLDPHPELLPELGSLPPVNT

[2] = target: T2, Histone-lysine N-methyltransferase SUV39H1 (Homo sapiens, UniProt O43463)
T2 sequence (O43463 whole entry): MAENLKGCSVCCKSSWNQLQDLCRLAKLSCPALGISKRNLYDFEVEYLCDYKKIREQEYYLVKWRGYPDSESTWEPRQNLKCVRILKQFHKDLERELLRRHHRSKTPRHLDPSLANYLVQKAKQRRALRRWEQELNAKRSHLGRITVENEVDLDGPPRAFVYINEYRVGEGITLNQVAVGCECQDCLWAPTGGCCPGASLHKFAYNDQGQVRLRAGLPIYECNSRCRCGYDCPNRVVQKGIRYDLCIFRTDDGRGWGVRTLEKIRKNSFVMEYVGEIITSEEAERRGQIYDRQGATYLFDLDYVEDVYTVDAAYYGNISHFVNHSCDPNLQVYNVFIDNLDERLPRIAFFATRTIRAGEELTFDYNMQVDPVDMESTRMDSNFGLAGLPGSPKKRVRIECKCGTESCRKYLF

[3] = test system: HeLa; test: Growth inhibition of human HeLa cells after 48 hrs by MTT assay; type: functional
[4] = test system: HCT-116; test: Growth inhibition of human HCT116 cells after 48 hrs by MTT assay; type: functional; conditions: HCT-116, 48 h
[5] = test system: PC-3; test: Growth inhibition of human PC3 cells after 48 hrs by MTT assay; type: functional; conditions: PC-3, 48 h
[6] = Growth inhibition of human KYSE-150 cells after 48 hrs by MTT assay; type: functional; conditions: KYSE-150, 48 h
[7] = test system: SH-SY5Y; test: Growth inhibition of human SH-SY5Y cells after 48 hrs by MTT assay; type: functional
[8] = test system: HCT-116; test: Growth inhibition of human HCT116 cells after 24 to 48 hrs by MTT assay; type: functional
[9] = test system: RKO; test: Growth inhibition of human RKO cells expressing p53 after 24 to 48 hrs by MTT assay; type: functional
[10] = target: T1, Histone-lysine N-methyltransferase EHMT2
Description: Inhibition of GST-tagged G9a after 1 hr by radioactive filter-binding assay

[11] = target: T2, Histone-lysine N-methyltransferase SUV39H1; test: Inhibition of SUV39H1 using [3H]-SAM as substrate preincubated for 10 mins before substrate addition measured after 30 mins by scintillation counter
[12] = target: T1, Histone-lysine N-methyltransferase EHMT2; test: Inhibition of G9a using [3H]-SAM as substrate preincubated for 10 mins before substrate addition measured after 30 mins by scintillation counter
[13] = target: T3, Histone-arginine methyltransferase CARM1 (Homo sapiens, UniProt Q86X55)
T3 sequence (Q86X55 whole entry): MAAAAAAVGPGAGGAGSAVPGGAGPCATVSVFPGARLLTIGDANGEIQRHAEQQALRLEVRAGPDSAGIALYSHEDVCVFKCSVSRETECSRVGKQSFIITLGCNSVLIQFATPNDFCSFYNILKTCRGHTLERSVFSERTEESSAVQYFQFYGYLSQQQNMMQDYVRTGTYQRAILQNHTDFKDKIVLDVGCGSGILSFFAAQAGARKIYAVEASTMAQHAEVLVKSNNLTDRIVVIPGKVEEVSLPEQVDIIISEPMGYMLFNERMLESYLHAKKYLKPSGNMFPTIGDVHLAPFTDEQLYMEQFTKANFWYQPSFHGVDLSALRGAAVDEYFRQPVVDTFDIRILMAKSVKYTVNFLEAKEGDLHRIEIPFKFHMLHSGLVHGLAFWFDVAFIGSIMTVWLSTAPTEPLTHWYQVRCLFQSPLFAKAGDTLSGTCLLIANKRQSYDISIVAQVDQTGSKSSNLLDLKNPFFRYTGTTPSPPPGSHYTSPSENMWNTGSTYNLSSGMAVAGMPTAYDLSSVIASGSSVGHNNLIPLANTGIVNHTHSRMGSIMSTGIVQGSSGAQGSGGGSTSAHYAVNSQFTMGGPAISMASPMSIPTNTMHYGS
Description: Inhibition of human CARM1 expressed in Escherichia coli BL21 (DE3) using [3H]-SAM as substrate preincubated for 10 mins before substrate addition measured after 30 mins by scintillation counter

[14] = target: T4, Lysine-specific demethylase 4E (Homo sapiens, UniProt B2RXH2)
T4 sequence (B2RXH2 whole entry): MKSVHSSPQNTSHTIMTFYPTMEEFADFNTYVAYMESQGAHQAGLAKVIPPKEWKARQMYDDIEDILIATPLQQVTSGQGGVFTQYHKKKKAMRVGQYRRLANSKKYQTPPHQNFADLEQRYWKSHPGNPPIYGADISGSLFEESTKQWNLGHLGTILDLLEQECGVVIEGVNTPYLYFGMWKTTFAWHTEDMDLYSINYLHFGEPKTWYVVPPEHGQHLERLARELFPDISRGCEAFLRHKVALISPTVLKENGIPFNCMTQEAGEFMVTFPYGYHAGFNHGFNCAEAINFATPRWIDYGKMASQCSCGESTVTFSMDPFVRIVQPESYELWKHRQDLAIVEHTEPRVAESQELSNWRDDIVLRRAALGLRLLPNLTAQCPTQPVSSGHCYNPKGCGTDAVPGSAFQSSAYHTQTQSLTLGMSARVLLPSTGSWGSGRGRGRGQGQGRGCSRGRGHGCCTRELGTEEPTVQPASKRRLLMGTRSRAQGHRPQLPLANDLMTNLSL
Description: Inhibition of JMJD2E catalytic domain by mass spectrophotometric analysis

[15] = target: T4, Lysine-specific demethylase 4E; test: Inhibition of JMJD2E
[16] = target: T5, N-lysine methyltransferase SMYD2 (Homo sapiens, UniProt Q9NRG4); test: Competitive binding affinity to full length human SMYD2 amino acid 1 to 433 expressed in Escherichia coli BL21 (DE3) after 90 mins by radioactive filter-binding assay in presence of P53 peptide
T5 sequence (Q9NRG4 whole entry): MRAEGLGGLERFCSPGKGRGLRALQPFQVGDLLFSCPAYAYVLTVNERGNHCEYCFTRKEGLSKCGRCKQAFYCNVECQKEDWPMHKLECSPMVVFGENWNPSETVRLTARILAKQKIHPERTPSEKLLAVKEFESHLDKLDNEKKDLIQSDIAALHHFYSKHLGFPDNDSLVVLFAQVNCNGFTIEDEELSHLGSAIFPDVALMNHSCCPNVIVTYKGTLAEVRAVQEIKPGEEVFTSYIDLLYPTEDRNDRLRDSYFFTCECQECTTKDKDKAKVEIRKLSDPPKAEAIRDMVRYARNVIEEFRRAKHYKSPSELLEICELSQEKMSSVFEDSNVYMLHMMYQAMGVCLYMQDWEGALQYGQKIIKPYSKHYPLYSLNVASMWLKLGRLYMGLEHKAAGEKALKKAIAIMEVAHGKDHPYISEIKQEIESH

[17] = organism: Homo sapiens; test: Selectivity ratio of IC50 for SET7/9 to IC50 for human SMYD2
[18] = organism: Homo sapiens; test: Selectivity ratio of IC50 for G9a to IC50 for human SMYD2
[19] = organism: Homo sapiens; test: Selectivity ratio of IC50 for GLP to IC50 for human SMYD2
[20] = organism: Homo sapiens; test: Selectivity ratio of IC50 for DOT1L to IC50 for human SMYD2
[21] = organism: Homo sapiens; test: Selectivity ratio of IC50 for EZH2 to IC50 for human SMYD2
[22] = organism: Homo sapiens; test: Selectivity ratio of IC50 for SMYD3 to IC50 for human SMYD2
[23] = target: T5, N-lysine methyltransferase SMYD2; test: Inhibition of full length human SMYD2 amino acid 1 to 433 expressed in Escherichia coli BL21 (DE3) using Biotinaminohexanoyl- GSRAHSSHLKSKKGQSTSRH as substrate after 75 mins by AlphaScreen assay
[24] = target: T4, Lysine-specific demethylase 4E; test: Inhibition of human JMJD2E
[25] = target: Lysine-specific histone demethylase 1A (Homo sapiens, UniProt O60341)
Description: Inhibition of full length N-terminal 6x His-tagged human LSD1 expressed in Escherichia coli BL21 (DE3) using H3K4me2 peptide as substrate by luminol dependent chemiluminescence assay

[26] = target: Protein arginine N-methyltransferase 1 (Homo sapiens, UniProt Q99873)
Sequence of Protein arginine N-methyltransferase 1 (Q99873 whole entry): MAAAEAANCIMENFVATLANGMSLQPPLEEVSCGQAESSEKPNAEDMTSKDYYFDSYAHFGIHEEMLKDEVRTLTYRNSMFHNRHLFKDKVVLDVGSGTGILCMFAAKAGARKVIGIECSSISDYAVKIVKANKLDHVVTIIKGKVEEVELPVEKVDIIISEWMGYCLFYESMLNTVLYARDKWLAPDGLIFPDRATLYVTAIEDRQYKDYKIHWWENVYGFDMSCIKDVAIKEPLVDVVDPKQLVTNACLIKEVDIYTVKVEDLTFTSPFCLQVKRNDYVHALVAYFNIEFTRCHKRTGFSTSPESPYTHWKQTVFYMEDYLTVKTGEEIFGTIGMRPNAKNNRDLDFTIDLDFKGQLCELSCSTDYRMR
Description: Inhibition of PRMT1 using [3H]-SAM as substrate preincubated for 10 mins before substrate addition measured after 30 mins by scintillation counter

CN1C(=O)[C@]23CC4=CC=C[C@H](O)[C@H]4N2C(=O)[C@@]1(CO)SS3 [GLIOTOXIN]
IC50 [1]: 0.53 µM | IC50 [2]: 0.26 µM

NC1CC1c1cccc(OCC[C@H](NC(=O)c2ccccc2)C(=O)NCc2ccccc2)c1 (stereo partly drawn)
GI50 [3]: 6 µM | GI50 [4]: 6 µM | GI50 [5]: 6 µM | GI50 [6]: 6 µM | GI50 [7]: 6 µM

CCNCCCCNCCCCNCCCCNCCCCNC/C=C/CNCCCCNCCCCNCCCCNCCCCNCC
GI50 [8]: 2.5 µM | GI50 [9]: 2.5 µM

CN1C(=O)[C@]23C[C@@]4([C@@]56C[C@]78SS[C@](CO)(C(=O)N7[C@@H]5Nc5ccccc56)N(C)C8=O)c5ccccc5N[C@H]4N2C(=O)[C@@]1(CO)SS3
IC50 [10]: 1.7 µM

CNc1ncnc2c1ncn2[C@@H]1O[C@H](CN(CCI)CCC[C@H](N)C(=O)O)[C@@H](O)[C@H]1O
IC50 [11]: > 100 µM | IC50 [12]: > 100 µM | IC50 [13]: > 100 µM

NCCNC(=O)c1ccnc(-c2cc(C(=O)O)ccn2)c1
IC50 [14]: 0.18 µM

CCNCCCCNCCCCNCCCCNCCCCNC/C=C\CNCCCCNCCCCNCCCCNCCCCNCC
GI50 [8]: 2.5 µM | GI50 [9]: 2.5 µM

CN1C(=O)[C@H]2C[C@]3([C@]45C[C@@H]6C(=O)N(C)[C@H](CO)C(=O)N6[C@H]4Nc4ccccc45)c4ccccc4N[C@@H]3N2C(=O)[C@H]1CO
IC50 [10]: > 50 µM

O=C(O)/C=C/C(=O)N(O)CCCCNCc1ccc(COC(=O)Nc2cccc3ccccc23)cc1
IC50 [15]: 5.9 µM | GI50 [6]: 5.1 µM

CS[C@]1(CO)C(=O)N2[C@H]3C(=CC=C[C@@H]3OC(C)=O)C[C@@]2(SC)C(=O)N1C
IC50 [1]: > 10 µM | IC50 [2]: > 10 µM

O=C1COc2c(CCNCCN(C(=O)CCNCCc3ccc(Cl)c(Cl)c3)C3CCCCC3)ccc(O)c2N1
Ki [16]: 0.3 µM | Ratio IC50 [17]: 700 | Ratio IC50 [18]: 700 | Ratio IC50 [19]: 700 | Ratio IC50 [20]: 700 | Ratio IC50 [21]: 700 | Ratio IC50 [22]: 700 | IC50 [23]: 0.12 µM

O=C(O)c1ccnc(C(=O)O)c1Nc1ccccc1F
IC50 [24]: 2.5 µM

C/N=C(\NC)NCCCNCCCNCCCN/C(=N/C)NC
IC50 [25]: 0.5 µM

CN1C(=O)[C@@]23C[C@]4([C@]56C[C@@]78SS[C@@](C)(C(=O)N7[C@H]5Nc5ccccc56)N(C)C8=O)c5ccccc5N[C@@H]4N2C(=O)[C@]1(C)SS3
IC50 [1]: 0.63 µM | IC50 [2]: 0.53 µM

N[C@@H]1C[C@H]1c1ccc(OCC[C@H](NC(=O)c2ccccc2)C(=O)NCc2ccccc2)cc1
GI50 [3]: 6 µM | GI50 [4]: 6 µM | GI50 [5]: 6 µM | GI50 [6]: 6 µM | GI50 [7]: 6 µM

N[C@@H](CCCN(CCI)C[C@H]1O[C@@H](n2cnc3c(NCc4ccccc4)ncnc32)[C@H](O)[C@@H]1O)C(=O)O
IC50 [11]: > 100 µM | IC50 [12]: > 100 µM | IC50 [13]: > 100 µM | IC50 [26]: > 100 µM

O=C(O)c1ccnc(-c2cc(C(=O)NCCc3ccccc3)ccn2)c1
IC50 [14]: 0.11 µM
